{"source": "patent US20130040882A1", "about": "“USE OF FIBROBLAST GROWTH FACTOR FRAGMENTS” (NOVARTIS AG, priority 2003, published 2013)", "test_system": "transcript levels in tissues (GH/IGF and glucagon/insulin axes, SSTR signalling)", "type": "in vivo, cynomolgus monkeys", "key": {"[1]": {"conditions": "RNA expression fold change, brown fat"}, "[2]": {"conditions": "RNA expression fold change, pancreas"}, "[3]": {"conditions": "RNA expression fold change, pituitary"}}, "note": "Like-named read-outs stand apart in the source and are kept apart here.", "data": [{"substance": "cyclo[4-(NH2—C2H4—NH—CO—O)Pro-Phg-DTrp-Lys-Tyr(4-Bzl)-Phe] [SOM230]", "values": [{"measurement": "Gene expression (AvgDiff): IGF-1", "setting": "BROWN FAT", "result": 389}, {"measurement": "Gene expression (AvgDiff): IGFBP 4", "setting": "BROWN FAT", "result": 763}, {"measurement": "Gene expression (AvgDiff): IRS 2", "setting": "BROWN FAT", "result": 146}, {"measurement": "Gene expression (AvgDiff): SSTR3", "setting": "BROWN FAT", "result": 194}, {"measurement": "Gene expression (AvgDiff): IGF-1", "setting": "PANCREAS", "result": 89}, {"measurement": "Gene expression (AvgDiff): SSTR2", "setting": "PANCREAS", "result": 156}, {"measurement": "Gene expression (AvgDiff): GR", "setting": "PITUITARY", "result": 109}, {"measurement": "Gene expression (AvgDiff): IGF-2", "setting": "PITUITARY", "result": 70}, {"measurement": "Gene expression (AvgDiff): IGFBP, acid labile subunit", "setting": "PITUITARY", "result": 83}, {"measurement": "Gene expression (AvgDiff): SSTR3", "setting": "PITUITARY", "result": 57}, {"measurement": "Actin related protein 2/3 complex, subunit 1A (41 kD) ↓", "setting": "[1]", "result": "(41 kD) ↓ x2.5"}, {"measurement": "Adrenergic, β-3-, receptor ↑", "setting": "[1]", "result": "receptor ↑ x2.5"}, {"measurement": "Apotosis-associated tyrosine kinase ↑", "setting": "[1]", "result": "tyrosine kinase ↑ x3.5"}, {"measurement": "CD2 antigen (cytoplasmic tail)-binding protein 2 ↑", "setting": "[1]", "result": "protein 2 ↑ x2.5"}, {"measurement": "CSF 1 (macrophage) ↓", "setting": "[1]", "result": "↓ x2"}, {"measurement": "CSF 3 receptor (granulocyte) ↑", "setting": "[1]", "result": "(granulocyte) ↑ x3"}, {"measurement": "Ca++ channel, voltage dependent, α 1H subunit ↑", "setting": "[1]", "result": "↑ x3"}, {"measurement": "Cadherin 5, VE-cadherin (vascular epithelium) ↑", "setting": "[1]", "result": "(vascular epithelium) ↑ x3"}, {"measurement": "Cadherin 13, H-cadherin (heart) ↓", "setting": "[1]", "result": "(heart) ↓ x2"}, {"measurement": "Cadherin F1B1 ↓", "setting": "[1]", "result": "Cadherin F1B1 ↓ x4"}, {"measurement": "Calcium/calmodulin-dependent protein kinase I ↓", "setting": "[1]", "result": "kinase I ↓ x3.5"}, {"measurement": "Capping protein (actin filament), gelsolin-like ↓", "setting": "[1]", "result": "↓ x2.5"}, {"measurement": "Coagulation factor XIIIAI subunit precursor ↓", "setting": "[1]", "result": "↓ x5"}, {"measurement": "Cyclin T2 ↑", "setting": "[1]", "result": "Cyclin T2 ↑ x2.5"}, {"measurement": "Dopamine receptor D3 ↑", "setting": "[1]", "result": "x2.5"}, {"measurement": "Dual specificity PP MKP-5 ↑", "setting": "[1]", "result": "MKP-5 ↑ x2.5"}, {"measurement": "EGF receptor pathway substrate 15 ↓", "setting": "[1]", "result": "substrate 15 ↓ x2"}, {"measurement": "Endothelial cell GF 1 (platelet derived) ↓", "setting": "[1]", "result": "(platelet derived) ↓ x2"}, {"measurement": "Endothelial differentiation, sphingolipid G-protein-coupled receptor, 5 ↑", "setting": "[1]", "result": "coupled receptor, 5 ↑ x2.5"}, {"measurement": "FSHR ↑", "setting": "[1]", "result": "FSHR ↑ x2.5"}, {"measurement": "Fms-related tyrosine kinase 1 (VEGF/vascular permeability factor receptor) ↓", "setting": "[1]", "result": "receptor) ↓ x4.5"}, {"measurement": "Follistatin-like 3 glycoprotein ↑", "setting": "[1]", "result": "glycoprotein ↑ x3"}, {"measurement": "G1 to S phase transition ↓", "setting": "[1]", "result": "↓ x1.5"}, {"measurement": "G protein-activated inwardly rectifying K+ channel ↑", "setting": "[1]", "result": "channel ↑ x3.5"}, {"measurement": "G protein-coupled receptor 1 ↓", "setting": "[1]", "result": "receptor 1 ↓ x2.5"}, {"measurement": "G α inhibiting activity polypeptide 3 interacting protein ↓", "setting": "[1]", "result": "protein ↓ x5"}, {"measurement": "GLUR, metabotropic 1 ↑", "setting": "[1]", "result": "↑ x2"}, {"measurement": "Guanine nucleotide binding protein (G protein), β polypeptide 3 ↑", "setting": "[1]", "result": "↑ x2.5"}, {"measurement": "IFN induced transmembrane protein 1 ↑", "setting": "[1]", "result": "↑ x2.5"}, {"measurement": "IFN γ-inducible protein 30 (IP30) ↓", "setting": "[1]", "result": "30 (IP30) ↓ x3.5"}, {"measurement": "IGF-1 ↓", "setting": "[1]", "result": "IGF-1 ↓ x1.5"}, {"measurement": "IGF-binding protein 4 ↓", "setting": "[1]", "result": "↓ x2"}, {"measurement": "IL 3 (CSF, multiple) ↑", "setting": "[1]", "result": "↑ x2"}, {"measurement": "IL 5R, α ↑", "setting": "[1]", "result": "IL 5R, α↑ x2.5"}, {"measurement": "IL 7R precursor ↑", "setting": "[1]", "result": "IL 7R precursor ↑ x2"}, {"measurement": "IRS (insulin receptor substrate) 2 ↑", "setting": "[1]", "result": "substrate) 2 ↑ x2.5"}, {"measurement": "Neuroblastoma apoptosis-related RNA bindingprotein ↓", "setting": "[1]", "result": "bindingprotein ↓ x3"}, {"measurement": "Neuroblastoma ↓", "setting": "[1]", "result": "Neuroblastoma ↓ x2.5"}, {"measurement": "Oxytocin, prepro-(neurophysin I) ↑", "setting": "[1]", "result": "(neurophysin I) ↑ x2.5"}, {"measurement": "PCNA ↓", "setting": "[1]", "result": "PCNA ↓ x2.5"}, {"measurement": "PI glycan, class F ↓", "setting": "[1]", "result": "PI glycan, class F ↓ x2"}, {"measurement": "PI glycan, class L ↑", "setting": "[1]", "result": "PI glycan, class L ↑ x3.5"}, {"measurement": "PI-3-kinase. regulatory subunit, polypeptide 2 (p85 β) ↓", "setting": "[1]", "result": "(p85 β) ↓ x3.5"}, {"measurement": "PLC β4 ↑", "setting": "[1]", "result": "PLC β4 ↑ x2"}, {"measurement": "PP 2, regulatory subunit B (B56), γ isoform ↓", "setting": "[1]", "result": "B (B56), γ isoform ↓ x1.5"}, {"measurement": "PP 5, catalytic subunit ↑", "setting": "[1]", "result": "↑ x2.5"}, {"measurement": "Pentaxin-related gene, rapidly induced by IL-1 ↓", "setting": "[1]", "result": "↓ x7.5"}, {"measurement": "T3 receptor ↑", "setting": "[1]", "result": "T3 receptor ↑ x2"}, {"measurement": "TGF β3 ↑", "setting": "[1]", "result": "TGF β3 ↑ x2.5"}, {"measurement": "TGF β-activated kinase-binding protein 1 ↑", "setting": "[1]", "result": "binding protein 1 ↑ x2.5"}, {"measurement": "THR interactor 10 ↓", "setting": "[1]", "result": "THR interactor 10 ↓ x3"}, {"measurement": "THR interactor 12 ↓", "setting": "[1]", "result": "↓ x1.5"}, {"measurement": "TNF type 1 receptor associated protein ↓", "setting": "[1]", "result": "associated protein ↓ x2"}, {"measurement": "VGF nerve growth factor inducible ↑", "setting": "[1]", "result": "factor inducible ↑ x2"}, {"measurement": "BCL2/adenovirus E1B 19 kD-intracting protein 1, isoform BNIP1-a ↓", "setting": "[2]", "result": "BNIP1-a ↓ x1.5"}, {"measurement": "CRHR 1 ↓", "setting": "[2]", "result": "CRHR 1 ↓ x2"}, {"measurement": "Ca++ channel, voltage dependent, α 1F subunit ↓", "setting": "[2]", "result": "↓ x4.5"}, {"measurement": "Cdki 1C ↑", "setting": "[2]", "result": "Cdki 1C ↑ x2"}, {"measurement": "Chymotrypsin-like ↑", "setting": "[2]", "result": "↑ x3.5"}, {"measurement": "Cyclin D1 ↑", "setting": "[2]", "result": "Cyclin D1 ↑ x2"}, {"measurement": "Cyclin T2 ↓", "setting": "[2]", "result": "Cyclin T2 ↓ x2"}, {"measurement": "G-CSF protein ↓", "setting": "[2]", "result": "G-CSF protein ↓ x2"}, {"measurement": "GLUR precursor, flip isoform ↑", "setting": "[2]", "result": "flip isoform ↑ x3"}, {"measurement": "Gastrin-releasing peptide receptor ↓", "setting": "[2]", "result": "peptide receptor ↓ x5"}, {"measurement": "IFN regulatory factor 3 ↑", "setting": "[2]", "result": "factor 3 ↑ x5"}, {"measurement": "IGF-1 ↑", "setting": "[2]", "result": "IGF-1 ↑ x4.5"}, {"measurement": "IL 1 receptor antagonist ↓", "setting": "[2]", "result": "antagonist↓ x2"}, {"measurement": "IP-1-phosphatase ↑", "setting": "[2]", "result": "↑ x2.5"}, {"measurement": "Integrin α2b precursor ↑", "setting": "[2]", "result": "precursor ↑ x1.5"}, {"measurement": "K+ voltage-gated channel, KQT-like subfamily, member3 ↓", "setting": "[2]", "result": "↓ x2.5"}, {"measurement": "Na+ channel, voltage-gated, type I, β polypeptide ↑", "setting": "[2]", "result": "β polypeptide ↑ x2"}, {"measurement": "Neuroblastoma apoptosis-related RNA bindingprotein ↓", "setting": "[2]", "result": "↓ x3"}, {"measurement": "PDGFR α ↑", "setting": "[2]", "result": "PDGFR α ↑ x2.5"}, {"measurement": "PDGFR, α polypeptide ↑", "setting": "[2]", "result": "α polypeptide ↑ x1.5"}, {"measurement": "PI-4-kinase, catalytic, α polypeptide ↑", "setting": "[2]", "result": "α polypeptide ↑ x1.5"}, {"measurement": "PL A2, group IVC (cytosolic, calcium-independent) ↑", "setting": "[2]", "result": "independent) ↑ x1.5"}, {"measurement": "Phosphotyrosine independent ligand p62B for the Lck SH2 domain B-cell isoform ↓", "setting": "[2]", "result": "isoform ↓ x2"}, {"measurement": "Prostacyclin synthase ↑", "setting": "[2]", "result": "↑ x2"}, {"measurement": "SSTR2 ↓", "setting": "[2]", "result": "SSTR2 ↓ x1.5"}, {"measurement": "Smad 3 ↓", "setting": "[2]", "result": "Smad 3 ↓ x1.5"}, {"measurement": "THR binding protein ↓", "setting": "[2]", "result": "↓ x2"}, {"measurement": "THR interactor 10 ↑", "setting": "[2]", "result": "↑ x2.5"}, {"measurement": "Thrombospondin 2 ↑", "setting": "[2]", "result": "↑ x3.5"}, {"measurement": "1-PI-4-phosphate 5-kinase isoform C ↓", "setting": "[3]", "result": "kinase isoform C ↓ x1.5"}, {"measurement": "ANP (atrial natriuretic peptide precursor B) ↑", "setting": "[3]", "result": "peptide precursor B) ↑ x2"}, {"measurement": "ATP(GTP)-binding protein ↑", "setting": "[3]", "result": "protein ↑ x1.5"}, {"measurement": "ATPase, Ca++ transporting cardiac muscle, slow twitch 2 ↑", "setting": "[3]", "result": "↑ x1.5"}, {"measurement": "ATPase, H+/K+ exchanging, α polypeptide ↓", "setting": "[3]", "result": "↓ x5"}, {"measurement": "ATPase, Na+/K+ transporting, α2(+) polypeptide ↑", "setting": "[3]", "result": "polypeptide ↑ x2.5"}, {"measurement": "ATPase, Na+/K+ transporting, β3 polypeptide ↑", "setting": "[3]", "result": "polypeptide ↑ x2.5"}, {"measurement": "Adrenomedullin ↑", "setting": "[3]", "result": "Adrenomedullin ↑ x2.5"}, {"measurement": "Arg PTK-binding protein ↓", "setting": "[3]", "result": "protein ↓ x2.5"}, {"measurement": "BCL2-antagonist of cell death ↑", "setting": "[3]", "result": "death ↑ x2"}, {"measurement": "BCL2-associated athanogene ↑", "setting": "[3]", "result": "athanogene ↑ x2"}, {"measurement": "BCL2/adenovirus E1B 19 kD-interacting protein 3 ↑", "setting": "[3]", "result": "↑ x1.5"}, {"measurement": "Bax γ ↑", "setting": "[3]", "result": "Bax γ ↑ x1.5"}, {"measurement": "Brain cannabinoid receptor 1 ↑", "setting": "[3]", "result": "receptor 1 ↑ x2"}, {"measurement": "Butyrate response factor 2 (EGF-response factor 2) ↑", "setting": "[3]", "result": "↑ x3"}, {"measurement": "CC chemokines STCP-1 ↑", "setting": "[3]", "result": "↑ x1.5"}, {"measurement": "CD36 antigen ↓", "setting": "[3]", "result": "CD36 antigen ↓ x2"}, {"measurement": "Calcium/calmodulin-dependent protein kinase I ↑", "setting": "[3]", "result": "kinase I ↑ x2.5"}, {"measurement": "Catenin (cadherin-associated protein), α1 (102 kD) ↓", "setting": "[3]", "result": "α1 (102 kD) ↓ x1.5"}, {"measurement": "Cdki2C (p18, inhibits CDK4) ↑", "setting": "[3]", "result": "CDK4) ↑ x2"}, {"measurement": "Cdki2D (p19, inhibits CDK4) ↑", "setting": "[3]", "result": "CDK4) ↑ x1.5"}, {"measurement": "Cell division cycle 25B ↑", "setting": "[3]", "result": "↑ x5"}, {"measurement": "Cholecystokinin receptor ↓", "setting": "[3]", "result": "receptor ↓ x4.5"}, {"measurement": "Cholinergic receptor, muscarinic 3 ↓", "setting": "[3]", "result": "muscarinic 3 ↓ x3"}, {"measurement": "Cholinergic receptor, nicotinic, β polypeptide 4 ↓", "setting": "[3]", "result": "β polypeptide 4 ↓ x2"}]}]}
